The test has as its target T1, Human Aryl Hydrocarbon Receptor (AhR) (Homo sapiens, UniProt P35869).
T1 construct: purchased INDIGO Bioscience #1B06001-32; host or cells: AhR Reporter Cell (kit's proprietary reporter cells)
T1 sequence (P35869 11-848): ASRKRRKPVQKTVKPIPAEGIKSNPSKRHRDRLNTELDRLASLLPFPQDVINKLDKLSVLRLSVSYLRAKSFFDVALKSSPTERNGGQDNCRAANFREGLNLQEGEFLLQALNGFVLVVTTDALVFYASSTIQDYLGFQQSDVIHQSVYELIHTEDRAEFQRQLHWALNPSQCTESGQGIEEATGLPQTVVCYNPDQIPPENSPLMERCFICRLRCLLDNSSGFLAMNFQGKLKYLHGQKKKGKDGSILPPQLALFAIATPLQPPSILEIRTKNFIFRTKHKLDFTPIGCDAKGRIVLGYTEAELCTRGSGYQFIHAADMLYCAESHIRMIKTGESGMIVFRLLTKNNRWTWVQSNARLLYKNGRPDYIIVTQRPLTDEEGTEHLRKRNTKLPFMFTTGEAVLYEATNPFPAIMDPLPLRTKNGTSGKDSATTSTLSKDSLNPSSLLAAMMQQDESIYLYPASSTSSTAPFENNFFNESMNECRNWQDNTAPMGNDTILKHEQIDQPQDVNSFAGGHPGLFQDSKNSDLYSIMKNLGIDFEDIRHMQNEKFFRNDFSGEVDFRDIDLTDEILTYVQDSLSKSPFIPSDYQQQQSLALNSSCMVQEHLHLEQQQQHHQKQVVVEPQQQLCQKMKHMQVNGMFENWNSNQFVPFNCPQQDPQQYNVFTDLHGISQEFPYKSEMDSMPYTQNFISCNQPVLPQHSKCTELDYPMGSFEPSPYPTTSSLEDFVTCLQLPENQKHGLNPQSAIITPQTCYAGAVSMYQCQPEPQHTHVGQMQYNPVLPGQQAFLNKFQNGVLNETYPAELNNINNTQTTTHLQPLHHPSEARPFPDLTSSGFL
The experiment in a line: AHR antagonist reporter assay in human cell line (INDIGO AhR Reporter Assay System, kynurenic acid activated). Format: cell-based. Particulars: 200 μM kynurenic acid, 24 hours, luciferase; read-out: AhR Reporter Assay KA Antagonist Mode: IC50. As for the experimental part: The AhR reporter assay was performed following the protocol of the Human Aryl Hydrocarbon Receptor (AhR) Reporter Assay System (INDIGO Bioscience, #1B06001-32). AhR Reporter Cell was thawed and pre-incubated in Cell Recovery Medium (CRM) for 6 hours. The media was then removed and the cells were incubated with Compound Screening Medium (CSM) supplemented with 200 μM kynurenic acid for 24 hours in the absence (negative control) or presence of increasing concentrations of test compounds (typical dilution: […], 3.2 nM, 16 nM, 80 nM, 400 nM, 2 μM, 10 μM in duplicates). For positive inhibition control, cells activated with 200 μM kynurenic acid were incubated in the presence of literature AHR antagonists; alternatively un-activated cells were used as positive inhibition control. Following 24 hours incubation, the media was removed and Luciferase Detection Reagent (LDR) added. The firefly luciferase activity was quantified using a plate reader. Results were normalized by positive and negative controls.
On the technique in general: A reporter such as luciferase makes a cellular process visible.
Usually IC50 stands for the point on the concentration scale where inhibition reaches its midpoint. For the compound `COC[C@H](C)NC(=O)c1cc(N2CC3(CCCCC3)C2)nn(-c2cnn(C)c2)c1=O` [Compound 117], the IC50 was over 400 nM. With `COC[C@H](C)NC(=O)c1cc(-c2ccccc2Cl)nn(-c2cnn(C)c2)c1=O` [Compound 118], the IC50 was over 400 nM. Take `COC[C@H](C)NC(=O)c1cc(C2CCC(C)(C)CC2)nn(-c2cnn(C)c2)c1=O` [Compound 119]: the IC50 is over 400 nM. With `COC[C@H](C)NC(=O)c1cc(-c2cc3cccnc3cc2F)nn(-c2cnn(C)c2)c1=O` [Compound 121], the IC50 was over 400 nM.

Take `COC[C@H](C)NC(=O)c1cc(-c2ccc3ccc(OC)nc3c2)nn(-c2cnn(C)c2)c1=O` [Compound 122]: the IC50 was over 400 nM. Turning to `COC[C@H](C)NC(=O)c1cc(-c2ccc3oc(C)nc3c2)nn(-c2cnn(C)c2)c1=O` [Compound 124], the IC50 is over 400 nM.

As to `COC[C@H](C)NC(=O)c1cc(N2C[C@H]3CCCC[C@H]3C2)nn(-c2cnn(C)c2)c1=O` [Compound 125], the IC50 is under 100 nM. Turning to `COC[C@H](C)NC(=O)c1cc(-c2ccc3ncccc3c2)nn(-c2cnn(C)c2)c1=O` [Compound 126], the IC50 was over 400 nM. On to `COC[C@H](C)NC(=O)c1cc(N2CCC(C)(C)CC2)nn(-c2cnn(C)c2)c1=O` [Compound 127], for which the IC50 was over 400 nM.

Turning to `COC[C@H](C)NC(=O)c1cc(-c2ccc3c(c2)OCCO3)nn(-c2cnn(C)c2)c1=O` [Compound 128], the IC50 was over 400 nM. Consider `COC[C@H](C)NC(=O)c1cc(-c2ccc3c(C)ccnc3c2)nn(-c2cnn(C)c2)c1=O` [Compound 129], for which the IC50 is over 400 nM.

With `COC[C@H](C)NC(=O)c1cc(-c2ccc3cccnc3c2F)nn(-c2cnn(C)c2)c1=O` [Compound 130], the IC50 was in the range of 100 to 400 nM. As to `COC[C@H](C)NC(=O)c1cc(-c2ccc3nc(N)ccc3c2)nn(-c2cnn(C)c2)c1=O` [Compound 131], the IC50 is over 400 nM. Turning to `COC[C@H](C)NC(=O)c1cc(-c2ccc3sc(C)nc3c2)nn(-c2cnn(C)c2)c1=O` [Compound 132], the IC50 is over 400 nM.

In the case of `COC[C@H](C)NC(=O)c1cc(-c2ccc3cnccc3c2)nn(-c2cnn(C)c2)c1=O` [Compound 133], the IC50 is over 400 nM. Regarding `COC[C@H](C)NC(=O)c1cc(N2C(=O)C(C)(C)c3ccccc32)nn(-c2cnn(C)c2)c1=O` [Compound 134], the IC50 is over 400 nM. Consider `COC[C@H](C)NC(=O)c1cc(-n2cc(C)c(C)n2)nn(-c2cnn(C)c2)c1=O` [Compound 135], for which the IC50 is over 400 nM. The value for `COC[C@H](C)NC(=O)c1cc(-n2cc(C(F)(F)F)cn2)nn(-c2cnn(C)c2)c1=O` [Compound 136] was over 400 nM.

`COC[C@H](C)NC(=O)c1cc(-n2ccc(C3CC3)n2)nn(-c2cnn(C)c2)c1=O` [Compound 137]: the IC50 was over 400 nM. For `COC[C@H](C)NC(=O)c1cc(-n2ccc(C(F)(F)F)n2)nn(-c2cnn(C)c2)c1=O` [Compound 138], the IC50 is over 400 nM. To `COC[C@H](C)NC(=O)c1cc(-c2ccc3c(c2)OCO3)nn(-c2cnn(C)c2)c1=O` [Compound 140] belongs over 400 nM; to `COC[C@H](C)NC(=O)c1cc(-c2ccc3c(c2)N(C)CC3)nn(-c2cnn(C)c2)c1=O` [Compound 141], over 400 nM. As to `COC[C@H](C)NC(=O)c1cc(-n2ccc(-c3ccc(Cl)cc3)n2)nn(-c2cnn(C)c2)c1=O` [Compound 142], the IC50 is under 100 nM. On to `COC[C@H](C)NC(=O)c1cc(-n2nc(C(F)(F)F)cc2C)nn(-c2cnn(C)c2)c1=O` [Compound 143], for which the IC50 was over 400 nM. For the compound `COC[C@H](C)NC(=O)c1cc(-c2cc(F)c3ncccc3c2F)nn(-c2cnn(C)c2)c1=O` [Compound 144], the IC50 was over 400 nM. The value for `COC[C@H](C)NC(=O)c1cc(N2CCC3(CCCCC3)C2)nn(-c2cnn(C)c2)c1=O` [Compound 145] was over 400 nM; that for `COC[C@H](C)NC(=O)c1cc(C2=CCC(C)CC2)nn(-c2cnn(C)c2)c1=O` (stereo partly shown) [Compound 149] was under 100 nM.

As for `COC[C@H](C)NC(=O)c1cc(-n2ccc3ccccc32)nn(-c2cnn(C)c2)c1=O` [Compound 151], the IC50 was over 400 nM. As to `COC[C@H](C)NC(=O)c1cc(C2CCC(C)CC2)nn(-c2cnn(C)c2)c1=O` (stereo partly shown) [Compound 152], the IC50 was over 400 nM. As for `COC[C@H](C)NC(=O)c1cc(-c2cc3c(O)ncnc3cc2F)nn(-c2cnn(C)c2)c1=O` [Compound 154], the IC50 is over 400 nM.

On to `COC[C@H](C)NC(=O)c1cc(-n2nnc3ccccc32)nn(-c2cnn(C)c2)c1=O` [Compound 158], for which the IC50 is over 400 nM. Take `COC[C@H](C)NC(=O)c1cc(-n2nc3ccccc3n2)nn(-c2cnn(C)c2)c1=O` [Compound 159]: the IC50 lay in the range of 100 to 400 nM. As for `C[C@@H](CO)NC(=O)c1cc(-n2ccc(-c3ccc(Cl)cc3)n2)nn(-c2cnn(C)c2)c1=O` [Compound 162], the IC50 was under 100 nM. For `CN(C)C(=O)C(C)(C)NC(=O)c1cc(-c2ccc(C(F)(F)F)nc2)nn(-c2cnn(C)c2)c1=O` [Compound 166], the IC50 is over 400 nM. Consider `CNC(=O)C(C)(C)NC(=O)c1cc(-c2ccc(OC(F)(F)F)cc2)nn(-c2cnn(C)c2)c1=O` [Compound 174], for which the half-maximal inhibitory concentration (IC50) lay within 100 to 400 nM. In the case of `C[C@H](NC(=O)c1cc(-c2ccc(C(=O)N(C)C)cc2)nn(-c2cccc(F)c2)c1=O)C(=O)N(C)C` [Compound 178], the IC50 is over 400 nM. On to `C[C@@H](CO)NC(=O)c1cc(-c2ccc(C(=O)N(C)C)cc2)nn(-c2cccc(F)c2)c1=O` [Compound 179], for which the IC50 is over 400 nM. Turning to `CNC(=O)[C@H](C)NC(=O)c1cc(-c2ccc(C(=O)N(C)C)cc2)nn(-c2cccc(F)c2)c1=O` [Compound 180], the IC50 is under 100 nM. For `C[C@H](NC(=O)c1cc(-c2cnc(-c3ccc(Cl)cc3)nc2)nn(-c2cnn(C)c2)c1=O)C(=O)N(C)C` [Compound 182], the IC50 is under 100 nM. Take `C[C@@H](CO)NC(=O)c1cc(-c2cnc(-c3ccccc3)nc2)nn(-c2cnn(C)c2)c1=O` [Compound 187]: the IC50 is under 100 nM. Turning to `C[C@H](NC(=O)c1cc(-n2ncc(-c3ccc(Cl)cc3)n2)nn(-c2cnn(C)c2)c1=O)C(=O)N(C)C` [Compound 188], the IC50 was over 400 nM. For `C[C@H](NC(=O)c1cc(-n2cc(-c3ccc(Cl)cc3)nn2)nn(-c2cnn(C)c2)c1=O)C(=O)N(C)C` [Compound 189], the IC50 is over 400 nM. Consider `CNC(=O)[C@H](C)NC(=O)c1cc(-n2ncc(-c3ccc(Cl)cc3)n2)nn(-c2cnn(C)c2)c1=O` [Compound 190], for which the IC50 was over 400 nM. `C[C@@H](CO)NC(=O)c1cc(-c2ccc(-c3ccc4ncccc4c3)nc2)nn(-c2cnn(C)c2)c1=O` [Compound 196]: the IC50 was over 400 nM. For `C[C@@H](CO)NC(=O)c1cc(N2CCN(c3ccccc3F)CC2)nn(-c2cnn(C)c2)c1=O` [Compound 209], the IC50 is under 100 nM. On to `C[C@@H](CO)NC(=O)c1cc(N2CCN(c3cccc(F)c3)CC2)nn(-c2cnn(C)c2)c1=O` [Compound 210], for which the IC50 is under 100 nM.

(Values after patent US20240351988A1, “ARYL HYDROCARBON RECEPTOR MODULATORS AND THEIR USE IN THE TREATMENT OF DISEASES AND DISORDERS” (Allianthera (Suzhou) Biopharmaceutical Co., Ltd., priority 2021, published 2024).)
